# Data taken from US12336982B2 (RODEO THERAPEUTICS CORPORATION, priority 2018, dated 2025).
# Target: T1, recombinant 15-PGDH (Homo sapiens, UniProt P15428)
# T1 sequence (P15428 1-266): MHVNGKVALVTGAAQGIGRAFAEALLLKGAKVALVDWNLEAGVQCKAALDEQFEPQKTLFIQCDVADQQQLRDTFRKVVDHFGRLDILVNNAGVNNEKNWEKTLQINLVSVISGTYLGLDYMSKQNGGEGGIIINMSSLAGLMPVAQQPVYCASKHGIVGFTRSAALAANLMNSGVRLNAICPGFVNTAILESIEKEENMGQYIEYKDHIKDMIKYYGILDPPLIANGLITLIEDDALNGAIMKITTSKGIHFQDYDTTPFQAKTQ
# Assay type: biochemical
# Conditions: recombinant human 15-PGDH, in vitro; read-out: PDGH Assay-IC50
# Excerpt: The Recombinant 15-PGDH is human unless otherwise specified.
row,Structure (SMILES),IC50 [nM]
1,Cc1cc(-c2cc(-c3cnc(N)nc3)nc3sc([S+]([O-])C4CCC4)c(N)c23)n(C)n1 (stereo not shown) [Example 355],< 2.5
2,Cc1cc(-c2cc(-c3cncnc3)nc3sc([S+]([O-])C4CCC4)c(N)c23)n(C)n1 (stereo not shown) [Example 356],< 2.5
3,Cc1cn(C)nc1-c1cc(-c2cnc(N)nc2)nc2sc([S+]([O-])C3CCC3)c(N)c12 (stereo not shown) [Example 357],< 2.5
4,COCC[S+]([O-])c1sc2nc(-c3cnc4nncn4c3)cc(-c3ccccc3)c2c1N (stereo not shown) [Example 358],≥ 10
5,COCC[S@@+]([O-])c1sc2nc(-c3cnc4nncn4c3)cc(-c3ccccc3)c2c1N [Example 359],< 2.5
6,COCC[S@+]([O-])c1sc2nc(-c3cnc4nncn4c3)cc(-c3ccccc3)c2c1N [Example 360],≥ 10
7,COCC[S+]([O-])c1sc2nc(-c3cnc4ncn(C)c4c3)cc(-c3ccccc3)c2c1N (stereo not shown) [Example 361],< 2.5
8,COCC[S@@+]([O-])c1sc2nc(-c3cnc4ncn(C)c4c3)cc(-c3ccccc3)c2c1N [Example 362],< 2.5
9,COCC[S@+]([O-])c1sc2nc(-c3cnc4ncn(C)c4c3)cc(-c3ccccc3)c2c1N [Example 363],≥ 10
10,COCC[S+]([O-])c1sc2nc(-c3cnc4ncn(C)c4c3)cc(-c3ccccc3)c2c1N (stereo not shown) [Example 364],< 2.5
11,COCC[S+]([O-])c1sc2nc(-c3cnc4ncn(C)c4c3)cc(C3CCC3)c2c1N (stereo not shown) [Example 365],< 2.5
12,COCC[S@@+]([O-])c1sc2nc(-c3cnc4ncn(C)c4c3)cc(C3CCC3)c2c1N [Example 366],< 2.5
13,COCC[S@+]([O-])c1sc2nc(-c3cnc4ncn(C)c4c3)cc(C3CCC3)c2c1N [Example 367],≥ 10
14,COCC[S+]([O-])c1sc2nc(-c3cnc4nnn(C)c4c3)cc(C3CCC3)c2c1N (stereo not shown) [Example 368],< 2.5
15,Cn1nccc1-c1cc(-c2cnc3nnn(C)c3c2)nc2sc([S+]([O-])C3CCC3)c(N)c12 (stereo not shown) [Example 369],< 2.5
16,Cn1nccc1-c1cc(-c2cnc3nnn(C)c3c2)nc2sc([S+]([O-])C3CCC3)c(N)c12 (stereo not shown) [Example 370],< 2.5
17,Cn1nccc1-c1cc(-c2cnc3ncn(C)c3c2)nc2sc([S@+]([O-])C3CCC3)c(N)c12 [Example 371],< 2.5
18,Cn1nccc1-c1cc(-c2cnc3ncn(C)c3c2)nc2sc([S@@+]([O-])C3CCC3)c(N)c12 [Example 372],≥ 10
19,COCC[S+]([O-])c1sc2nc(-c3cnc4c(c3)ncn4C)cc(C3CCC3)c2c1N (stereo not shown) [Example 373],< 2.5
20,COCC[S@@+]([O-])c1sc2nc(-c3cnc4c(c3)ncn4C)cc(C3CCC3)c2c1N [Example 374],< 2.5
21,COCC[S@+]([O-])c1sc2nc(-c3cnc4c(c3)ncn4C)cc(C3CCC3)c2c1N [Example 375],≥ 10
22,COCC[S+]([O-])c1sc2nc(-c3cnc4c(c3)ncn4C)cc(C3CCC3)c2c1N (stereo not shown) [Example 376],< 2.5
23,COCC[S+]([O-])c1sc2nc(-c3cnc4nn(C)nc4c3)cc(C3CCC3)c2c1N (stereo not shown) [Example 377],< 2.5
24,Cn1nc2cc(-c3cc(-c4ccnn4C)c4c(N)c([S+]([O-])C5CCC5)sc4n3)cnc2n1 (stereo not shown) [Example 378],< 2.5
25,COCC[S+]([O-])c1sc2nc(-c3cnc4c(c3)ncn4C)cc(-c3ccnn3C)c2c1N (stereo not shown) [Example 379],< 2.5

row,Structure (SMILES),IC50 [nM]
1,COCC[S+]([O-])c1sc2nc(-c3cnc4nn(C)nc4c3)cc(-c3ccnn3C)c2c1N (stereo not shown) [Example 380],< 2.5
2,COCC[S@@+]([O-])c1sc2nc(-c3cnc4nn(C)nc4c3)cc(-c3ccnn3C)c2c1N [Example 381],< 2.5
3,COCC[S@+]([O-])c1sc2nc(-c3cnc4nn(C)nc4c3)cc(-c3ccnn3C)c2c1N [Example 382],≥ 10
4,Cn1nccc1-c1cc(-c2cnc3c(c2)ncn3C)nc2sc([S+]([O-])C3CCC3)c(N)c12 (stereo not shown) [Example 383],< 2.5
5,COCC[S+]([O-])c1sc2nc(-c3cnc4c(c3)CN(C)C4=O)cc(-c3ccccc3)c2c1N (stereo not shown) [Example 384],< 2.5
6,COCC[S+]([O-])c1sc2nc(-c3cnc4c(c3)CN(C)C4=O)cc(C3CCC3)c2c1N (stereo not shown) [Example 385],< 2.5
7,COCCn1ccc(-c2cc(-c3cnc4nn(C)cc4c3)nc3sc([S+]([O-])CCOC)c(N)c23)n1 (stereo not shown) [Example 386],< 2.5
8,COCCn1ccc(-c2cc(-c3cnc4nn(C)cc4c3)nc3sc([S@+]([O-])CCOC)c(N)c23)n1 [Example 387],< 2.5
9,COCCn1ccc(-c2cc(-c3cnc4nn(C)cc4c3)nc3sc([S@@+]([O-])CCOC)c(N)c23)n1 [Example 388],≥ 10
10,COCC[S+]([O-])c1sc2nc(-c3ccc(NC(=O)OC)nc3)cc(-c3cccnc3)c2c1N (stereo not shown) [Example 390],2.5 to 10
11,COCC[S+]([O-])c1sc2nc(-c3ccc(NC(=O)OC)nc3)cc(C3CCC3)c2c1N (stereo not shown) [Example 391],2.5 to 10
12,COC(=O)Nc1ccc(-c2cc(-c3ccnn3C)c3c(N)c([S+]([O-])C4CCC4)sc3n2)cn1 (stereo not shown) [Example 392],< 2.5
13,COCC[S+]([O-])c1sc2nc(-c3ccc(NC(C)=O)nc3)cc(-c3ccnn3C)c2c1N (stereo not shown) [Example 393],2.5 to 10
14,COCC[S+]([O-])c1sc2nc(-c3cn[nH]c(=O)c3)cc(-c3ccccc3)c2c1N (stereo not shown) [Example 394],< 2.5
15,Nc1c([S+]([O-])C2CCC2)sc2nc(-c3cn[nH]c(=O)c3)cc(C3CCC3)c12 (stereo not shown) [Example 395],< 2.5
16,COCC[S+]([O-])c1sc2nc(-c3cnn(C)c(=O)c3)cc(C3CCC3)c2c1N (stereo not shown) [Example 396],< 2.5
17,COCC[S+]([O-])c1sc2nc(-c3cnn(C)c(=O)c3)cc(-c3ccccc3)c2c1N (stereo not shown) [Example 397],< 2.5
18,Cn1ncc(-c2cc(C3CCC3)c3c(N)c([S+]([O-])C4CCC4)sc3n2)cc1=O (stereo not shown) [Example 398],< 2.5
19,COCC[S+]([O-])c1sc2nc(-c3cnc4ncnn4c3)cc(-c3ccccc3)c2c1N (stereo not shown) [Example 399],< 2.5
20,COCC[S+]([O-])c1sc2nc(-c3cnc4ncnn4c3)cc(C3CCC3)c2c1N (stereo not shown) [Example 400],< 2.5
21,Nc1c([S+]([O-])C2CCC2)sc2nc(-c3cnc4ncnn4c3)cc(-c3ccccc3)c12 (stereo not shown) [Example 401],< 2.5
22,Nc1c([S@+]([O-])C2CCC2)sc2nc(-c3cnc4ncnn4c3)cc(-c3ccccc3)c12 [Example 402],< 2.5
23,Nc1c([S@@+]([O-])C2CCC2)sc2nc(-c3cnc4ncnn4c3)cc(-c3ccccc3)c12 [Example 403],≥ 10
24,COCC[S+]([O-])c1sc2nc(-c3cnc4ncn(C)c4c3)cc(C3CC3)c2c1N (stereo not shown) [Example 404],< 2.5
25,COCC[S@@+]([O-])c1sc2nc(-c3cnc4ncn(C)c4c3)cc(C3CC3)c2c1N [Example 405],< 2.5

row,Structure (SMILES),IC50 [nM]
1,COCC[S@+]([O-])c1sc2nc(-c3cnc4ncn(C)c4c3)cc(C3CC3)c2c1N [Example 406],≥ 10
2,Cn1cnc2ncc(-c3cc(C4CC4)c4c(N)c([S+]([O-])C5CCC5)sc4n3)cc21 (stereo not shown) [Example 407],< 2.5
3,COCC[S@@+]([O-])c1sc2nc(-c3cnc4nn(C)cc4c3)cc(C(C)C)c2c1N [Example 408],< 2.5
4,Cn1cncc(-c2cc(C3CCC3)c3c(N)c([S+]([O-])C4CCC4)sc3n2)c1=O (stereo not shown) [Example 409],< 2.5
5,Cn1cncc(-c2cc(-c3ccccc3)c3c(N)c([S+]([O-])C4CCC4)sc3n2)c1=O (stereo not shown) [Example 410],2.5 to 10
6,CC1(O)CN(c2ncc(-c3cc(-c4ccccc4)c4c(N)c([S+]([O-])C5CCC5)sc4n3)cn2)C1 (stereo not shown) [Example 411],2.5 to 10
7,Cn1cc(-c2cc(-c3ccc(OCCO)cc3)c3c(N)c([S+]([O-])C4CCC4)sc3n2)cn1 (stereo not shown) [Example 412],< 2.5
8,Cn1cc(-c2cc(-c3ccc(OCCO)cc3)nc3sc([S+]([O-])C4CCC4)c(N)c23)cn1 (stereo not shown) [Example 413],< 2.5
9,Nc1c([S+]([O-])C2CCC2)sc2nc(-c3cncnc3)cc(-c3ccn(C4CC4)n3)c12 (stereo not shown) [Example 414],< 2.5
10,CN(C)c1cc(-c2cc(-c3cnc(N)nc3)nc3sc([S@+]([O-])C4CCC4)c(N)c23)n(C)n1 [Example 415],< 2.5
11,Nc1c([S+]([O-])C2CCC2)sc2nc(-c3ccnn3C3CC3)cc(-c3cncnc3)c12 (stereo not shown) [Example 416],≥ 10
12,COCC[S+]([O-])c1sc2nc(-c3cnc4nn(C)cc4c3)cc(C(F)(F)F)c2c1N (stereo not shown) [Example 417],< 2.5
13,COCC[S@@+]([O-])c1sc2nc(-c3cnc4nn(C)cc4c3)cc(C(F)(F)F)c2c1N [Example 418],< 2.5
14,COCC[S@+]([O-])c1sc2nc(-c3cnc4nn(C)cc4c3)cc(C(F)(F)F)c2c1N [Example 419],≥ 10
15,COCCC[S+]([O-])c1sc2nc(-c3cnc4nn(C)cc4c3)cc(C(F)(F)F)c2c1N (stereo not shown) [Example 420],< 2.5
16,Cn1cc2cc(-c3cc(C(F)(F)F)c4c(N)c([S+]([O-])C5CCC5)sc4n3)cnc2n1 (stereo not shown) [Example 421],< 2.5
17,Cn1cc2cc(-c3cc(C(F)(F)F)c4c(N)c([S@@+]([O-])C5CCC5)sc4n3)cnc2n1 [Example 422],≥ 10
18,Cn1cc2cc(-c3cc(C(F)(F)F)c4c(N)c([S@+]([O-])C5CCC5)sc4n3)cnc2n1 [Example 423],< 2.5
19,COCC[S+]([O-])c1sc2nc(-c3cnc(N4CCOCC4)nc3)cc(C(F)(F)F)c2c1N (stereo not shown) [Example 424],< 2.5
20,COCCC[S+]([O-])c1sc2nc(-c3cnc(N4CCOCC4)nc3)cc(C(F)(F)F)c2c1N (stereo not shown) [Example 425],2.5 to 10
21,COCC[S+]([O-])c1sc2nc(-c3cnn(C)c3)cc(C(F)(F)F)c2c1N (stereo not shown) [Example 426],< 2.5
22,COCCC[S+]([O-])c1sc2nc(-c3cnn(C)c3)cc(C(F)(F)F)c2c1N (stereo not shown) [Example 427],< 2.5
23,Cn1cc(-c2cc(C(F)(F)F)c3c(N)c([S+]([O-])C4CCC4)sc3n2)cn1 (stereo not shown) [Example 428],< 2.5
